ChEMBL document CHEMBL1126505, “Syntheses of Cyclopentane, Cyclohexene and Olefin Oxazoles as Thromboxane A2/Endoperoxide Receptor Antagonists” (Bioorg Med Chem Lett, 1993)

How the values were obtained:
Thromboxane A2 receptor = target: T1, Thromboxane A2 receptor (Homo sapiens, UniProt P21731); experiment: Binding affinity was determined for Thromboxane A2 receptor in human platelet membrane using [3H]SQ-29,548 radioligand; type: cell membranes
T1 sequence (P21731 whole entry): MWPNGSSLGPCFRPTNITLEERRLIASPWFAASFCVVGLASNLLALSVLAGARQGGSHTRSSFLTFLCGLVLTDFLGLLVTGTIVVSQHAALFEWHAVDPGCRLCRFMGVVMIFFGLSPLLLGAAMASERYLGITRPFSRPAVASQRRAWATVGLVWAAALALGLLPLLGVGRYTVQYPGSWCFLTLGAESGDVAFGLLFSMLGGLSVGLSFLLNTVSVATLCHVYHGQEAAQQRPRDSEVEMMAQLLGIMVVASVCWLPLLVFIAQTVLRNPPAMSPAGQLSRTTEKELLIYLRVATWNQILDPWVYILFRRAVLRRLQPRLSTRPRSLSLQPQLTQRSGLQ

Homo sapiens = species on record: Homo sapiens; experiment: Tested for the ability to inhibit arachidonic acid induced platelet aggregation in human platelet rich plasma; type: functional; conditions: read-out: I50

O=C(O)CCc1ccccc1C[C@@H]1CCC[C@@H]1c1nc(C(=O)NCCCCC2CCCCC2)co1
Kd (Thromboxane A2 receptor): 23.8 nM | IC50 (Homo sapiens): 107 nM

O=C(O)CCc1ccccc1CC1=C(c2nc(C(=O)NCCc3ccc(Cl)cc3)co2)CCCC1
Kd (Thromboxane A2 receptor): 63.5 nM | IC50 (Homo sapiens): 194 nM

O=C(O)CCc1ccccc1C[C@H]1CCC[C@@H]1c1nc(C(=O)NCc2ccc(Cl)cc2)co1
Kd (Thromboxane A2 receptor): 3.3 nM | IC50 (Homo sapiens): 5160 nM

O=C(O)CCc1ccccc1C[C@@H]1CCC[C@H]1c1nc(C(=O)NCc2ccc(Cl)cc2)co1
Kd (Thromboxane A2 receptor): 0.5 nM | IC50 (Homo sapiens): 338 nM

C/C(Cc1ccccc1CCC(=O)O)=C(\C)c1nc(C(=O)NCCc2ccc(Cl)cc2)co1
Kd (Thromboxane A2 receptor): 37.3 nM | IC50 (Homo sapiens): 235 nM

O=C(O)CCc1ccccc1CC1CCC[C@H]1c1nc(C(=O)NCCCCC2CCCCC2)co1 (single isomer, unassigned; (-))
Kd (Thromboxane A2 receptor): 4.3 nM | IC50 (Homo sapiens): 15 nM
